Measurements reported in PMC6285983, “Novel broad spectrum virucidal molecules against enveloped viruses” (PLoS ONE, 2018).

Experiments:
HRoV = HRoV inhibition assay on MA104 cells; assay type: cell-based, Human rotavirus strain Wa
Experimental: MA104 cell were plated in 96-well trays. The following day virus infectivity was activated by adding 5 μg porcine trypsin (Sigma)/mL for 30 min at 37°C. […] After 16 h, cells were fixed with cold acetone–methanol and viral titers were determined by indirect immunostaining using the monoclonal antibody mab-0036 (specific for human 41 kDa inner capsid protein–VP6 –of rotavirus) purchased from Covalab (Villeurbanne, France) and the UltraTech HRP Streptavidin-Biotin Detection System (Beckman Colter).

HPV-16 = HPV-16 inhibition assay on HeLa cells; assay type: cell-based, HPV-16 pseudovirions
Experimental: (§1) HeLa cells were plated in 96-well plates. […] The GFP-expressing infected cells were observed under an inverted Zeiss LSM510 fluorescence microscope (Zeiss, Oberkochen, Germany) and the percentages of infection were calculated by comparing GFP positive cells in treated and untreated wells.

[1] = Cell viability MTS assay on Vero cells; details: African green monkey
[2] = Cell viability MTS assay, conditions of the HCMV assay; assay type: cell-based; details: human, HELF cells
Experimental: (§2) Cell viability was measured using the MTS [3- (4,5-dimethylthiazol-2-yl)-5- (3 carboxy methoxy phenyl)-2-(4-sulfophenyl)-2H-tetrazolium] assay. Cell cultures were seeded in 96-well plates and were incubated with different concentrations of compounds in duplicate under the same experimental conditions described for the antiviral assays, (i.e. if the incubation time of the compound on cells was carried for 2 hours and then the evaluation of the antiviral activity was done 72h later, the same timing was used for the cytotoxicity assays, in order to exclude any toxicity effect in the antiviral evaluation). Cell viability was determined using the CellTiter 96 Proliferation Assay Kit (Promega, Madison, WI, USA) according to the manufacturer's instructions. Absorbances were measured using a Microplate Reader (Model 680, BIORAD) at 490 nm. The effect on cell viability at different concentrations of the compound was expressed as a percentage, by comparing absorbances of treated cells with those of cells incubated with culture medium and equal volumes of vehicle. […]
(§3) HELF cells were pre-plated in a 96-well plate. […] After five days incubation, cells were observed under an inverted Zeiss LSM510 fluorescence microscope (Zeiss, Oberkochen, Germany) and the percentages of infection were calculated by comparing GFP positive cells in treated and untreated wells.

HSV-1 = HSV-1 plaquing efficiency assay; assay type: cell-based
in vitro = details: African green monkey
HCMV = HCMV inhibition assay on HELF cells; assay type: cell-based, HCMV strain Towne; details: Human betaherpesvirus 5, HELF
Experimental: as §3

HSV-2 [3] = experiment: Virucidal assay; assay type: cell-based; details: for viral infectivity: 10 μM of compound
[4] = In vitro lipoperoxidation test (TBA assay, MDA); details: DPPC liposomes, 37°C, 30 minutes
Ad5 = Ad5 inhibition assay on HeLa cells; assay type: cell-based, Adenovirus 5
Experimental: as §1

HSV-2 [5] = experiment: Entry assay; assay type: cell-based; details: 10 μM, HSV-2 MOI 10
Experimental: Since the observed irreversible effect can be exerted at different stages of viral infection, we investigated more in detail if compound 9d produced a physical disruption of the virus, thus preventing its attachment to the cells or a successive irreversible modification. We performed entry and binding assays, evaluating the amount of bound virus through immunostaining or qPCR. […] On the contrary, when entry assays were performed, it was possible to observe a reduction in the amount of virus associated to the cells (Fig 7D). With this assay, the signal from the virus could be related to virus in the cytoplasm or blocked in the endosomes, since the treatment with acidic glycine is affecting only the virus at the surface of the cell. […]
Cells were plated on coverslips and the following day the binding or entry protocol described above was applied. […] Rhodamine conjugated anti-rabbit (Santa Cruz) was then added on cells for 1 h at 37°C following 3 washes coverslips were mounted on microscope glasses and observed with Zeiss LSM510 fluorescence microscope (Zeiss, Oberkochen, Germany) and images were acquired.

HSV-2 [6] = experiment: Viral yield reduction, post treatment; details: Human alphaherpesvirus 2
[7] = Cell viability MTS assay, conditions of the RSV assay; assay type: cell-based; details: human, Hep-2 cells
Experimental: as §2, with “vehicle. The 50% cytotoxic concentrations (CC50) and 95% confidence intervals (CIs) were determined using Prism software (Graph-Pad Software, San Diego, CA). For compound 9d a continuous incubation of 1, 2, 3 and 4 days on Vero cells was carried in order to evaluate the toxicity after long exposure the results are shown in S1 Fig and Fig 3.” for “vehicle.”

[8] = Cell viability MTS assay, conditions of the IAV assay; assay type: cell-based, Canine; details: dog, MDCK cells
Experimental: (§4) Cell viability was measured using the MTS [3- (4,5-dimethylthiazol-2-yl)-5- (3 carboxy methoxy phenyl)-2-(4-sulfophenyl)-2H-tetrazolium] assay. Cell cultures were seeded in 96-well plates and were incubated with different concentrations of compounds in duplicate under the same experimental conditions described for the antiviral assays, (i.e. if the incubation time of the compound on cells was carried for 2 hours and then the evaluation of the antiviral activity was done 72h later, the same timing was used for the cytotoxicity assays, in order to exclude any toxicity effect in the antiviral evaluation). Cell viability was determined using the CellTiter 96 Proliferation Assay Kit (Promega, Madison, WI, USA) according to the manufacturer's instructions. Absorbances were measured using a Microplate Reader (Model 680, BIORAD) at 490 nm. The effect on cell viability at different concentrations of the compound was expressed as a percentage, by comparing absorbances of treated cells with those of cells incubated with culture medium and equal volumes of vehicle. The 50% cytotoxic concentrations (CC50) and 95% confidence intervals (CIs) were determined using Prism software (Graph-Pad Software, San Diego, CA). For compound 9d a continuous incubation of 1, 2, 3 and 4 days on Vero cells was carried in order to evaluate the toxicity after long exposure the results are shown in S1 Fig and Fig 3.

[9] = Cell viability MTS assay, conditions of the HRoV assay; assay type: cell-based; details: African green monkey, MA104 cells
Experimental: as §4, with “3. […]” for “3.”

CC(C)c1ccc(CCN2C(=O)/C(=C/c3ccc(-c4ccc(C(=O)O)c(O)c4)o3)SC2=S)cc1 [Compound 9d, (Z)-2-hydroxy-4-(5-((3-(4-isopropylphenethyl)-4-oxo-2-thioxothiazolidin-5-ylidene)methyl)furan-2-yl)benzoic acid]
antiviral activity against non-enveloped virus (HRoV): inactive
antiviral activity against non-enveloped virus (HPV-16): inactive
CC50 ([1]; CC50, Vero cells, MTS): 2.09 µM
CC50 at 96 h ([1]; CC50, Vero cells, after 96h exposure): 2.09 µM
CC50 ([1]; CC50, conditions of HSV-1 assay): 2.09 µM
CC50 ([1]; CC50, conditions of HSV-2 acyclovir resistant assay): 2.09 µM
CC50 ([1]; CC50, conditions of ZIKAV assay): 8.85 µM
melting point: 259 °C (dec.)
CC50 at 3 h [2]: 5.24 µM
EC50 (HSV-1; Human alphaherpesvirus 1, read-out: EC50 (95% C.I.)): 0.00218 µM
EC90 (HSV-1; Human alphaherpesvirus 1, read-out: EC90 (95% C.I.)): 0.0351 µM
CC50 (in vitro): 24.8 µM
EC50 (HCMV; read-out: EC50 (95% C.I.)): 0.00422 µM
EC90 (HCMV; read-out: EC90 (95% C.I.)): 0.0313 µM
viral infectivity (HSV-2 [3]; 15' post treatment): decreased
viral infectivity (HSV-2 [3]; from 30' on): completely abrogated
infectivity after dilution in drug free medium (HSV-2 [3]; 1h incubation, then diluted for additional 1, 2, 3 or 4 hours): not regained
EC50 (HSV-2 [3]; Human alphaherpesvirus 2, virucidal assay, 1h of exposure, 10^5 pfu HSV-2): 0.0373 µM
lipid peroxidation of linoleic acid (MDA) [4]: remarkable lipid peroxidation
antiviral activity against non-enveloped virus (Ad5): inactive
amount of virus associated to the cells (HSV-2 [5]): reduction
EC50 (HSV-2 [6]): 0.0339 µM
CC50 at 3 h [7]: 17 µM
CC50 at 1 h [8]: 136 µM
CC50 at 1 h [9]: 156 µM
